Values joined by “and” are separate entries in the source; they are usually repeats but may differ in a detail not shown here. Equal entries are not always repeated. After the bases stand the sugars from the 5' end (letter, count) and the backbone: PS all phosphorothioate, else s phosphorothioate and o phosphodiester by linkage. Methylation of C is not given here. e = 2'-O-(2-methoxyethyl) (MOE); k = constrained ethyl (cEt); d = 2'-deoxy (DNA)

One series addresses SOD1. To be noted: ASO, HepG2, 4 µM.
Another series has as its target APOL1. To be noted: ASO.

In turn, “AGACTACATCCAAGGGA (sugars e2 k2 d8 k2 e3, PS)” showed a target mRNA inhibition with SOD1 of 53%.
In the series with APOL1 (A431, 2 µM), “ATCAGATGGGTACTTC (sugars k2 d4 e3 k2 d5, PS)” had a target mRNA inhibition of 67%.
Same read-out and setting: under “TCCGTCAATATATTCT (sugars kkddddkekekddddd, PS)” stands 94%.
Still for that read-out and setting: as for “GGCAGTTTTGTAAGTG (sugars k2 d4 e3 k2 d5, PS)”, the figure is 80%.
In the case of “TTTGTAAGTGCAACCA (sugars kekddddeekkddddd, PS)”, the target mRNA inhibition in the series with APOL1 (A431, 0.0156 µM) stood at 21%; with APOL1 (A431, 0.0625 µM), 46%; in the series with APOL1 (A431, 0.25 µM), 84%; with APOL1 (A431, 1 µM), 96%; with APOL1 (A431, 2 µM), 99%.
On to “ATTCAGAATTTCCACT (sugars k2 d4 e4 k2 d4, PS)”, for which the target mRNA inhibition with APOL1 (A431, 2 µM) came to 64%.
Regarding “TGGTTCAAAAGCAGCA (sugars kkddddkekekddddd, PS)”, the target mRNA inhibition with APOL1 (A431, 2 µM) was 68%.
In the case of “GAGTATTGTTTTTGTG (sugars kekddddeekkddddd, PS)”, the target mRNA inhibition in the series with APOL1 (A431, 2 µM) worked out at 90%.
For “GAGTATTGTTTTTGTG (sugars kkddddekekeddddd, PS)”, the target mRNA inhibition with APOL1 (A431, 0.0156 µM) is 40%; with APOL1 (A431, 0.04 µM), 47% and 50%; with APOL1 (A431, 0.0625 µM), 78%; with APOL1 (A431, 0.25 µM) it was 92%; with APOL1 (A431, 1 µM), 97%; in the series with APOL1 (A431, 2 µM) it was 98%.
Sequence “ACGCAATGCTGACTTG (sugars kkkddddkekeddddd, PS)” displayed a target mRNA inhibition in the series with APOL1 (A431, 2 µM) of 87%.
The same measure, in the same setting: under “AGTATTGCCAGCTAAG (sugars k2 d4 e3 k2 d5, PS)” stands 86%; under “TAAGTATTGCCAGCTA (sugars k2 d4 e3 k2 d5, PS)”, 79%.
The same measure, in the same setting: under “TTTGTAAGTGCAACCA (sugars kkddddkdkdkddddd, PS)” stands 99%; under “ATTCAGAATTTCCACT (sugars kkddddkdkdkddddd, PS)”, 79%.
Same read-out and setting: as for “CTTTAAACTCAGGTGA (sugars kddddkekekeddddd, PS)”, the figure is 70%.
Take “CTTTAAACTCAGGTGA (sugars k3 d4 k3 e1 d5, PS)”: the target mRNA inhibition in the series with APOL1 (A431, 2 µM) came to 59%.
Sequence “TTCTCATGGTACAGGA (sugars kkkddddkekekdddd, PS)” displayed a target mRNA inhibition with APOL1 (A431, 2 µM) of 54%.
In the series with APOL1 (A431, 2 µM), “GTTCTAACTCTTGGGC (sugars kdddddkekekddddd, PS)” displayed a target mRNA inhibition of 28%.
In the case of “TCAGATGGGTACTTCT (sugars k2 d4 e4 k2 d4, PS)”, the target mRNA inhibition in the series with APOL1 (A431, 2 µM) came out at 78%.
With “GTATTTCTTGATGTGG (sugars kekddddeekkddddd, PS)”, the target mRNA inhibition is 70% in the series with APOL1 (A431, 0.04 µM); 99% with APOL1 (A431, 1 µM); 99% with APOL1 (A431, 2 µM).
Turning to “GCTAATTTTCTGACTG (sugars k2 d4 e3 k2 d5, PS)”, the target mRNA inhibition in the series with APOL1 (A431, 0.0156 µM) was 35%; in the series with APOL1 (A431, 0.0625 µM), 62%; in the series with APOL1 (A431, 0.25 µM), 81%; with APOL1 (A431, 1 µM) it was 92%; in the series with APOL1 (A431, 2 µM), 94%.
For “CTATTAGAGGGCTAGT (sugars kddddkekekeddddd, PS)”, the target mRNA inhibition with APOL1 (A431, 2 µM) turned out to be 34%.
With GGGAATTATGGAATTG (sugars k4 d9 k3, PS), the target mRNA inhibition with APOL1 (A431, 0.0625 µM) was 48% and 59%; with APOL1 (A431, 0.25 µM), 70% and 67%; in the series with APOL1 (A431, 1 µM), 80% and 77%.
Turning to “CATTCAGAATTTCCAC (sugars kddddkekekeddddd, PS)”, in the series with APOL1 (A431, 2 µM), the target mRNA inhibition came out at 58%.
With TTATTGCAGGCTCCAA (sugars k4 d9 k3, PS), the target mRNA inhibition was 39% with APOL1 (A431, 0.0625 µM); 47% with APOL1 (A431, 0.25 µM); 76% in the series with APOL1 (A431, 1 µM).
In the series with APOL1 (A431, 2 µM), “TGGTTCAAAAGCAGCA (sugars kkkddddkekekdddd, PS)” displayed a target mRNA inhibition of 57%.
As to AATATCAGAGTGTACC (sugars k4 d9 k3, PS), the target mRNA inhibition with APOL1 (A431, 0.0625 µM) is 51%; in the series with APOL1 (A431, 0.25 µM) it was 73%; with APOL1 (A431, 1 µM), 84%.
The matching figures for TTCAGCTAAGACCAGT (sugars k4 d9 k3, PS): 35%, 71% and 88%.
In turn, “TTCTATTAGAGGGCTA (sugars kkkddddkekekdddd, PS)” returned a target mRNA inhibition with APOL1 (A431, 2 µM) of 42%.
For “CATTCAGAATTTCCAC (sugars k3 d4 k3 e1 d5, PS)”, the target mRNA inhibition with APOL1 (A431, 0.0156 µM) amounted to 5%; with APOL1 (A431, 0.0625 µM), 25%; in the series with APOL1 (A431, 0.25 µM), 64%; in the series with APOL1 (A431, 1 µM) it was 82%; with APOL1 (A431, 2 µM), 92%.
As to CTGTGATGTGGGACTT (sugars k4 d9 k3, PS), the target mRNA inhibition with APOL1 (A431, 0.0625 µM) worked out at 50%; in the series with APOL1 (A431, 0.25 µM), 76%; with APOL1 (A431, 1 µM), 89%.
The matching figures for GAGAACATTGAAACAC (sugars k3 d10 k3, PS): 19%, 65% and 86%.
“TGTATTTCTTGATGTG (sugars k2 d4 e3 k2 d5, PS)” displayed a target mRNA inhibition with APOL1 (A431, 2 µM) of 87%.
For the sequence “CATTCAGAATTTCCAC (sugars kekddddeekkddddd, PS)”, the target mRNA inhibition with APOL1 (A431, 2 µM) worked out at 89%.
Still for that read-out and setting: under “GTAAGTATTGCCAGCT (sugars kkkddddkekekdddd, PS)” stands 73%.
Turning to TTTTGTAAGTGCAACC (sugars k4 d9 k3, PS), the target mRNA inhibition was found to be 47% with APOL1 (A431, 0.0625 µM); 84% with APOL1 (A431, 0.25 µM); 95% with APOL1 (A431, 1 µM).
The matching figures for GCAAGGCTAAGTTCCG (sugars k4 d9 k3, PS): 79%, 92% and 97%.
As to CTTTATACCAGTGTCT (sugars k3 d10 k3, PS), the target mRNA inhibition was 30% in the series with APOL1 (A431, 0.0625 µM); 65% with APOL1 (A431, 0.25 µM); 88% in the series with APOL1 (A431, 1 µM).
Take “TGTTATATTTGATCCT (sugars kkdddddkekeddddd, PS)”: the target mRNA inhibition stood at 33% with APOL1 (A431, 0.0156 µM); 50% with APOL1 (A431, 0.04 µM); 59% in the series with APOL1 (A431, 0.0625 µM); 81% with APOL1 (A431, 0.25 µM); 92% with APOL1 (A431, 1 µM); 92% in the series with APOL1 (A431, 2 µM).
Turning to “TCTATTAGAGGGCTAG (sugars kkdddddkekeddddd, PS)”, the target mRNA inhibition in the series with APOL1 (A431, 2 µM) came out at 72%.
For CTCATTATCAGTCAGC (sugars k4 d9 k3, PS), the target mRNA inhibition is 57% in the series with APOL1 (A431, 0.0625 µM); 65% with APOL1 (A431, 0.25 µM); 64% with APOL1 (A431, 1 µM).
For the sequence ACCCTTTTGGCACCTT (sugars k4 d9 k3, PS), the target mRNA inhibition is 49% with APOL1 (A431, 0.0625 µM); 79% and 76% with APOL1 (A431, 0.25 µM); 92% and 89% with APOL1 (A431, 1 µM).
TGGGTCAAAAGCGATG (sugars k4 d9 k3, PS): the target mRNA inhibition in the series with APOL1 (A431, 0.0625 µM) is 25%; with APOL1 (A431, 0.25 µM) it was 54%; in the series with APOL1 (A431, 1 µM) it was 77%.
In turn, “AGTATTGCCAGCTAAG (sugars kkddddkdkdkddddd, PS)” displayed a target mRNA inhibition in the series with APOL1 (A431, 2 µM) of 69%.
“TGTAAGTGCAACCAAT (sugars kdddddkekekddddd, PS)” had a target mRNA inhibition with APOL1 (A431, 2 µM) of 81%.
The same measure, in the same setting: under “AAGATTGGCTCTGGCT (sugars k2 d4 e3 k2 d5, PS)” stands 63%; under “TAAGTATTGCCAGCTA (sugars kkkddddkekeddddd, PS)”, 78%.

These data come from the OligoGym collection.
